Like-named read-outs stand apart in the source and are kept apart here.
Legend:
[1] = test system: human lymphoma cells U937; test: MTT growth inhibition, U937 cells; type: cell-based; settings: read-out: Drug concentration (IC50) at which 50% cancer cells survived
Protocol: (§1) The procedure was as follows:
(§2) (3) The 96-well plate was taken out at 48 h and 72 h after dosing, the original culture medium was carefully removed by suction, 100 μl of serum-free DMEM culture medium and 10 μl of MTT (5 mg/mL) solution were added in each well. The plate was continuously cultured for another 4 h and then the culture was terminated;
(§3) (4) The supernatant in the wells was carefully removed by suction, each well was added with 150 μl of DMSO and shaked at room temperature for 10-15 min to fully dissolve crystals.
(§4) (5) Colorimetric analysis: the wavelength was selected as 570 nm, the light absorbance (A value) of each well was determined on the microplate reader and the results were recorded; the experiment was repeated for three times;
(§5) (6) the experimental results were calculated according to the following formula: relative survival rate=(A value of each experimental group/A value of cell control group)×100%
(§6) IC50 of the detected component was calculated by using a regression equation.

[2] = test system: human breast cancer cells MDA-MB231 xenograft; test: In-vivo growth of MDA-MB231 xenografts in nude mice; set-up: species or system BALB/c nude mice; settings: MB-231 xenograft; positive controls: cisplatin 1.5 mg/kg/day, cyclophosphamide 60 mg/kg/2 day, endostar 8 mg/kg
Protocol: (§7) RPMI1640 and DMEM culture solutions: Hyclone Company; inactivated fetal bovine serum: Hyclone Company, preserved at −20° C.; trypsin: Amersco Company; and 0.4% trypan blue: Sigma Company;
(§8) (3) Observation of growth of tumors in nude mice: the activities (including food intake, traits of urine and stool, mental state and the like) of the nude mice and the tumor growth time and growth situation of the transplanted tumors were observed every day, the body weight and the size of the tumors were measured once every 2-3 days. The long diameter a and the short diameter b (mm) of each tumor were measured by a vernier caliper to calculate the volume, wherein the volume V=π1/2·ab^2 (mm^3);
(§9) (4) sacrifice of animals: the mice were anesthetized and photoed after treatment experiments; the nude mice were sacrificed by breaking neck, the tumor tissues were stripped under sterile conditions and the weight of the tumors was weighed; and the effects of the drugs on pathology and toxicity of the various organs and tissues were detected.

[3] = test system: human lung cancer cells A549 xenograft; test: In-vivo growth of A549 xenografts in nude mice; set-up: species or system BALB/c nude mice; settings: positive controls: cisplatin 1.5 mg/kg/day, cyclophosphamide 60 mg/kg/2 day, endostar 8 mg/kg
Protocol: as §7, §8, §9

[4] = test system: human cervical cancer Hela cell lines; test: MTT growth inhibition, Hela cells; type: cell-based; settings: 72 h after treatment, read-out: Drug concentration (IC50) at which 50% cancer cells survived
Excerpt: (§10) Cell lines and cell culture: human lung cancer cells A549 and H460, human breast cancer cells MCF-7 and MDA-MB-231, human gastric cancer cells BGC-823, human prostate cancer cells PC-3, human chronic leukemia cells K562, human lymphoma cells U937, human liver cancer cells SMMC7721 and HepG2, human colon cancer cells HT29, human pancreatic cancer cells PANC-1 and BxPC3, human cervical cancer Hela cell lines, human brain tumor cells Daoy, human neuroma cells D54 and human oral epidermoid cancer cells KBV200 line with strong drug resistance, mouse melanoma cells B16, and highly metastatic Lewis lung cancer cell lines were purchased from American Type Culture Collection of the U.S. These cells were cultured with DMEM and RPMI-1640 culture solutions separately.
as §1
(§11) (1) 0.25% trypsin was used to digest cancer cells in a logarithmic growth phase to prepare a single-cell suspension, the concentration of cells was adjusted to 5×10^4/mL, and the adjusted suspension was inoculated into a 96-well culture plate with 100 μl per well;
(§12) (2) The culture plate was transferred into a 37° C. incubator with a saturated humidity and 5% of CO2 and cultured for 24 h; the compounds and the intermediates thereof obtained in embodiments 1-7 and the compound as represented by formula (IIIa) or the positive control anti-cancer drug with the concentration of 1-1000 μM/L were added to enable the final concentration to be 0.1-1500 μM/L. Control wells (only added with 200 μl of cell suspension) and drug-free blank control wells (containing the solvent of 0.01% DMSO) were set, each group included 8 wells, and the plate was placed into the 37° C. incubator with saturated humidity and 5% of CO2 for culturing;
as §2, §3, §4, §5
(§13) Calculation of median-effect concentration (IC50, namely the drug concentration at which the inhibition rate is 50%, also known as half inhibitory concentration):
as §6

mouse melanoma cells B16 = test: MTT growth inhibition, B16 cells; type: cell-based; settings: 72 h after treatment, read-out: Drug concentration (IC50) at which 50% cancer cells survived
Excerpt: as §10, §1, §11, §12, §2, §3, §4, §5, §13, §6

[5] = test system: human brain tumor cells Daoy; test: MTT growth inhibition, Daoy cells; type: cell-based; settings: 72 h after treatment, read-out: Drug concentration (IC50) at which 50% cancer cells survived
Excerpt: as §10, §1, §11, §12, §2, §3, §4, §5, §13, §6

human neuroma cells D54 = test: MTT growth inhibition, D54 cells; type: cell-based; settings: 72 h after treatment, read-out: Drug concentration (IC50) at which 50% cancer cells survived
Excerpt: as §10, §1, §11, §12, §2, §3, §4, §5, §13, §6

[6] = test system: human breast cancer cells MCF-7 xenograft; test: In-vivo growth of MCF-7 xenografts in nude mice; set-up: species or system BALB/c nude mice; settings: positive controls: cisplatin 1.5 mg/kg/day, cyclophosphamide 60 mg/kg/2 day, endostar 8 mg/kg
Protocol: as §7, §8, §9

[7] = test system: human liver cancer cells SMMC7721 xenograft; test: In-vivo growth of SMMC7721 xenografts in nude mice; set-up: species or system BALB/c nude mice; settings: S-7721 xenograft; positive controls: cisplatin 1.5 mg/kg/day, cyclophosphamide 60 mg/kg/2 day, endostar 8 mg/kg
Protocol: as §7, §8, §9

[8] = test system: human pancreatic cancer cells PANC-1 xenograft; test: In-vivo growth of PANC-1 xenografts in nude mice; set-up: species or system BALB/c nude mice; settings: positive controls: cisplatin 1.5 mg/kg/day, endostar 8 mg/kg
Protocol: as §7, §8, §9

[9] = test system: human cervical cancer cells Hela xenograft; test: In-vivo growth of Hela xenografts in nude mice; set-up: species or system BALB/c nude mice; settings: positive controls: cisplatin 1.5 mg/kg/day, endostar 8 mg/kg
Protocol: as §7, §8, §9

[10] = test system: human prostate cancer cells PC-3; test: MTT growth inhibition, PC-3 cells; type: cell-based; settings: 72 h after treatment, read-out: Drug concentration (IC50) at which 50% cancer cells survived
Excerpt: as §10, §1, §11, §12, §2, §3, §4, §5, §13, §6

[11] = test system: human pancreatic cancer cells BxPC3; test: MTT growth inhibition, BxPc3 cells; type: cell-based; settings: Homo sapiens, BXPC-3, 72 h after treatment, read-out: Drug concentration (IC50) at which 50% cancer cells survived
Excerpt: as §10, §1, §11, §12, §2, §3, §4, §5, §13, §6

[12] = test system: human chronic leukemia cells K562; test: MTT growth inhibition, K562 cells; type: cell-based; settings: 72 h after treatment, read-out: Drug concentration (IC50) at which 50% cancer cells survived
Excerpt: as §10, §1, §11, §12, §2, §3, §4, §5, §13, §6

[13] = test system: highly metastatic Lewis lung cancer cell lines; test: MTT growth inhibition, LLC cells; type: cell-based, mouse; settings: Mus musculus, Lewis lung carcinoma, 72 h after treatment, read-out: Drug concentration (IC50) at which 50% cancer cells survived
Excerpt: as §10, §1, §11, §12, §2, §3, §4, §5, §13, §6

[14] = test system: human liver cancer cells HepG2; test: MTT growth inhibition, HepG2 cells; type: cell-based; settings: 72 h after treatment, read-out: Drug concentration (IC50) at which 50% cancer cells survived
Excerpt: as §10, §1, §11, §12, §2, §3, §4, §5, §13, §6

[15] = test system: human pancreatic cancer cells PANC-1; test: MTT growth inhibition, PANC-1 cells; type: cell-based; settings: 72 h after treatment, read-out: Drug concentration (IC50) at which 50% cancer cells survived
Excerpt: as §10, §1, §11, §12, §2, §3, §4, §5, §13, §6

[16] = test system: human liver cancer cells SMMC7721; test: MTT growth inhibition, SMMC7721 cells; type: cell-based; settings: SMMC-7721, S-7721 (SMMC7721), 72 h after treatment, read-out: Drug concentration (IC50) at which 50% cancer cells survived
Excerpt: as §10, §1, §11, §12, §2, §3, §4, §5, §13, §6

[17] = test system: human oral epidermoid cancer cells KBV200; test: MTT growth inhibition, KBV200 cells; type: cell-based; settings: 72 h after treatment, read-out: Drug concentration (IC50) at which 50% cancer cells survived
Excerpt: as §10, §1, §11, §12, §2, §3, §4, §5, §13, §6

[18] = test system: human breast cancer cells MCF-7; test: MTT growth inhibition, MCF-7 cells; type: cell-based; settings: MCF7, 72 h after treatment, read-out: Drug concentration (IC50) at which 50% cancer cells survived
Excerpt: as §10, §1, §11, §12, §2, §3, §4, §5, §13, §6

[19] = test system: human colon cancer cells HT29; test: MTT growth inhibition, HT29 cells; type: cell-based; settings: HT-29, 72 h after treatment, read-out: Drug concentration (IC50) at which 50% cancer cells survived
Excerpt: as §10, §1, §11, §12, §2, §3, §4, §5, §13, §6

[20] = test system: Caski human cervical cancer cells; test: MTT growth inhibition, Caski cells; type: cell-based; settings: Ca-Ski, 72 h after treatment, read-out: Drug concentration (IC50) at which 50% cancer cells survived
[21] = test system: human lung cancer cells A549; test: MTT growth inhibition, A549 cells; type: cell-based; settings: 72 h after treatment, read-out: Drug concentration (IC50) at which 50% cancer cells survived
Excerpt: as §10, §1, §11, §12, §2, §3, §4, §5, §13, §6

[22] = test system: human lung cancer cells H460; test: MTT growth inhibition, H460 cells; type: cell-based; settings: NCI-H460, 72 h after treatment, read-out: Drug concentration (IC50) at which 50% cancer cells survived
Excerpt: as §10, §1, §11, §12, §2, §3, §4, §5, §13, §6

[23] = test system: human breast cancer cells MDA-MB-231; test: MTT growth inhibition, MDA-MB-231 cells; type: cell-based; settings: 72 h after treatment, read-out: Drug concentration (IC50) at which 50% cancer cells survived
Excerpt: as §10, §1, §11, §12, §2, §3, §4, §5, §13, §6

[24] = test system: human gastric cancer cells BGC-823; test: MTT growth inhibition, BGC-823 cells; type: cell-based; settings: 72 h after treatment, read-out: Drug concentration (IC50) at which 50% cancer cells survived
Excerpt: as §10, §1, §11, §12, §2, §3, §4, §5, §13, §6

N.N.O=C([O-])C1(C(=O)[O-])CCC1.[Pt+2] [Carboplatin, reference compound]
IC50 ([1]; 72 h after treatment): 58 ± 30 µM

N.N.[Cl][Pt][Cl] [Cisplatin, reference compound]
Curative effect (inhibition rate %) of tumor weight [2]: A/61.3% ± 6.7*; | Curative effect (inhibition rate %) of tumor weight [3]: A/46.7% ± 6.5*; | IC50 [4]: 66 µM | IC50 (mouse melanoma cells B16): 67 ± 30 µM | IC50 [5]: 1.6 µM | IC50 (human neuroma cells D54): 21 µM | Curative effect (inhibition rate %) of tumor weight [6]: A.39.9% ± 7.8; | Curative effect (inhibition rate %) of tumor weight [7]: A.69.6% ± 7.9; | Curative effect (inhibition rate %) of tumor weight [8]: A/25.3% ± 7.7 | Curative effect (inhibition rate %) of tumor weight [9]: A.36.6% ± 7.5

O=C(O)c1cc2ccccc2oc1=O [Compound IIIa]
IC50 [10]: > 500 µM | IC50 [11]: > 700 µM | IC50 [12]: > 700 µM | IC50 ([4]; Homo sapiens): > 700 µM | IC50 [13]: > 700 µM | IC50 ([1]; Homo sapiens, U-937, 72 h after treatment): > 700 µM | IC50 [14]: > 700 µM | IC50 (mouse melanoma cells B16; Mus musculus): > 700 µM | IC50 [15]: > 700 µM | IC50 ([5]; Homo sapiens): > 700 µM | IC50 [16]: > 500 µM | IC50 (human neuroma cells D54; Homo sapiens): > 700 µM | IC50 [17]: > 700 µM | IC50 [18]: > 700 µM | IC50 [19]: > 700 µM | IC50 [20]: > 700 µM | IC50 [21]: > 700 µM | IC50 [22]: > 700 µM | IC50 [23]: > 700 µM | IC50 [24]: > 700 µM

From patent US9518038B2, “Condensation product of theanine derivative and carboxylic acid coumarin derivative, its intermediate, preparation method and use thereof” (SHANDONG YINGDONG YINGHAO BIOTECHNOLOGY, INC., priority 2012, dated 2016)
